19 molecules from ChEMBL document CHEMBL3991601, “The target landscape of clinical kinase drugs” (Science, 2017) can be followed below.

Test [1] deals with Serine/threonine-protein kinase PAK 6 (Homo sapiens, UniProt Q9NQU5).
Test [2] concerns the target T1, Dual specificity mitogen-activated protein kinase kinase 4 (Homo sapiens, UniProt P45985).
T1 sequence (P45985 whole entry): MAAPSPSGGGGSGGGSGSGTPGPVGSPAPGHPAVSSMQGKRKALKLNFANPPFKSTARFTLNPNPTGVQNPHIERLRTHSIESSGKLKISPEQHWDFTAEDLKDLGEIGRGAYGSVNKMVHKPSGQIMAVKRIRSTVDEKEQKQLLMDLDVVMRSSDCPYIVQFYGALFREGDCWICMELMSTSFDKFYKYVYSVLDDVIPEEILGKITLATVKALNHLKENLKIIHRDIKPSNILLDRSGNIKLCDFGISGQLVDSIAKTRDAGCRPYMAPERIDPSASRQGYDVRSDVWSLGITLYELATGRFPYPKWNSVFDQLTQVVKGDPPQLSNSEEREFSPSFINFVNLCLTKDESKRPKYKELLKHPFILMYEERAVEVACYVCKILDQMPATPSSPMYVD

The target of test [3] is Serine/threonine-protein kinase N3 (Homo sapiens, UniProt Q6P5Z2).
The target in test [4] is T2, Long-chain-fatty-acid--CoA ligase 5 (Homo sapiens, UniProt Q9ULC5).
T2 sequence (Q9ULC5 whole entry): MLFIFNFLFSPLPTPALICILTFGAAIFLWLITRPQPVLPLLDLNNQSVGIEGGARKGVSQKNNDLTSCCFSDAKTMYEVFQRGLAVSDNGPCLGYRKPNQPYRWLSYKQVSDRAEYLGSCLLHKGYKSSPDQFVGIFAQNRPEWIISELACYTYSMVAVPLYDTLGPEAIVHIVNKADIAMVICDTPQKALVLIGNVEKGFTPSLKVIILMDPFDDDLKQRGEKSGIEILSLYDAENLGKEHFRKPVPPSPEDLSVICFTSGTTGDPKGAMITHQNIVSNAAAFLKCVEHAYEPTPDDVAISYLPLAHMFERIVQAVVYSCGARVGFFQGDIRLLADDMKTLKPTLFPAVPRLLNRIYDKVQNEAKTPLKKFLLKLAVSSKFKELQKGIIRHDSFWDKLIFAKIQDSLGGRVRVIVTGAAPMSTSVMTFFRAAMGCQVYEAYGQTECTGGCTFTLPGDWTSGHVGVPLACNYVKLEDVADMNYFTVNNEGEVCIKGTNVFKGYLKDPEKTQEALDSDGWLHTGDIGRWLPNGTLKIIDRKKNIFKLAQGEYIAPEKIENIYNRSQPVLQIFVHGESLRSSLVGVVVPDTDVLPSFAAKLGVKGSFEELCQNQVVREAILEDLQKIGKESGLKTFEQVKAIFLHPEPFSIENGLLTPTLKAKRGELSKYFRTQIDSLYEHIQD

Test [5] concerns the target T3, Electron transfer flavoprotein subunit beta (Homo sapiens, UniProt P38117).
T3 sequence (P38117 whole entry): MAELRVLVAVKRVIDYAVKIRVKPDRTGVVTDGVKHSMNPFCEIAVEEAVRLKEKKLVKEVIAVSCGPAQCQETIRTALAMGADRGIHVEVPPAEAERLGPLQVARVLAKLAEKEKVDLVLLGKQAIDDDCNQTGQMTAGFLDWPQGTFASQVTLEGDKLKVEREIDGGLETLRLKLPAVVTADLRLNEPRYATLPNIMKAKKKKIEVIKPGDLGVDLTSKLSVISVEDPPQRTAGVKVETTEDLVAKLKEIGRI

Test [6] addresses Serine/threonine-protein kinase pim-2 (Homo sapiens, UniProt Q9P1W9).
Test [7] concerns the target Serine/threonine-protein kinase Nek7 (Homo sapiens, UniProt Q8TDX7).
Test [8] has as its target T4, Dual specificity protein kinase TTK (Homo sapiens, UniProt P33981).
T4 sequence (P33981 whole entry): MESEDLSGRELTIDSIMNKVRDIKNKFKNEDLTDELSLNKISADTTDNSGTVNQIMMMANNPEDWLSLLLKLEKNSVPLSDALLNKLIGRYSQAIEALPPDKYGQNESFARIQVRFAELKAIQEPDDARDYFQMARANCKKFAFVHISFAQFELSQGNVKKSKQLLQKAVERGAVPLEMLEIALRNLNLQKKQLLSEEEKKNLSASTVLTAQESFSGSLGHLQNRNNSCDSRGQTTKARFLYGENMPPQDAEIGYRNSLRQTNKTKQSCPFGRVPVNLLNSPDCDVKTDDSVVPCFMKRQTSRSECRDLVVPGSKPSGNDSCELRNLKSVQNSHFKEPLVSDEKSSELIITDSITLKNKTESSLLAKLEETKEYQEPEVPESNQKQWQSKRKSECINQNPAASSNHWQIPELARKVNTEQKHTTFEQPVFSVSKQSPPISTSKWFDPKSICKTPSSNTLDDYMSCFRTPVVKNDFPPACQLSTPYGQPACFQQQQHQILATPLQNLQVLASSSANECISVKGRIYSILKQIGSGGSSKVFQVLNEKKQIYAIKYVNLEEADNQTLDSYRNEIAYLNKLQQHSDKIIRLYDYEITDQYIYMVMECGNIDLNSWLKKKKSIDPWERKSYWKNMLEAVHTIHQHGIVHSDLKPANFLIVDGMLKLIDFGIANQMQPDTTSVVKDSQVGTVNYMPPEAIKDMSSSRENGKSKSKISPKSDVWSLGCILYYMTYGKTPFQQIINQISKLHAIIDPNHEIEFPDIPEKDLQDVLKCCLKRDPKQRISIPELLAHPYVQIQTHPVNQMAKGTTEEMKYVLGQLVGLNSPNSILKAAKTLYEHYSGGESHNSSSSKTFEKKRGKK

SMILES strings stand for the structures. Calls of active or inactive are those of the source. On the calls: in the data inactive means no Kd found up to 30 µM.

Chain of Serine/threonine-protein kinase pim-2 (Q9P1W9 whole entry): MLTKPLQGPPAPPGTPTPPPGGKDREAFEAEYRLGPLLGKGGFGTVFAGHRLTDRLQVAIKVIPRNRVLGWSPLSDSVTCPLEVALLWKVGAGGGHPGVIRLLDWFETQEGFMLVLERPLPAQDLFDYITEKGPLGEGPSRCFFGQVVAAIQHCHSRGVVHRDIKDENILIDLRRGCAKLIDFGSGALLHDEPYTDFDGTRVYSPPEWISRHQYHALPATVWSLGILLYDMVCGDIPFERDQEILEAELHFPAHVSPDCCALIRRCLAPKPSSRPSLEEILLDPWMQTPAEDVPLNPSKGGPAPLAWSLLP
Chain of Serine/threonine-protein kinase N3 (Q6P5Z2 whole entry): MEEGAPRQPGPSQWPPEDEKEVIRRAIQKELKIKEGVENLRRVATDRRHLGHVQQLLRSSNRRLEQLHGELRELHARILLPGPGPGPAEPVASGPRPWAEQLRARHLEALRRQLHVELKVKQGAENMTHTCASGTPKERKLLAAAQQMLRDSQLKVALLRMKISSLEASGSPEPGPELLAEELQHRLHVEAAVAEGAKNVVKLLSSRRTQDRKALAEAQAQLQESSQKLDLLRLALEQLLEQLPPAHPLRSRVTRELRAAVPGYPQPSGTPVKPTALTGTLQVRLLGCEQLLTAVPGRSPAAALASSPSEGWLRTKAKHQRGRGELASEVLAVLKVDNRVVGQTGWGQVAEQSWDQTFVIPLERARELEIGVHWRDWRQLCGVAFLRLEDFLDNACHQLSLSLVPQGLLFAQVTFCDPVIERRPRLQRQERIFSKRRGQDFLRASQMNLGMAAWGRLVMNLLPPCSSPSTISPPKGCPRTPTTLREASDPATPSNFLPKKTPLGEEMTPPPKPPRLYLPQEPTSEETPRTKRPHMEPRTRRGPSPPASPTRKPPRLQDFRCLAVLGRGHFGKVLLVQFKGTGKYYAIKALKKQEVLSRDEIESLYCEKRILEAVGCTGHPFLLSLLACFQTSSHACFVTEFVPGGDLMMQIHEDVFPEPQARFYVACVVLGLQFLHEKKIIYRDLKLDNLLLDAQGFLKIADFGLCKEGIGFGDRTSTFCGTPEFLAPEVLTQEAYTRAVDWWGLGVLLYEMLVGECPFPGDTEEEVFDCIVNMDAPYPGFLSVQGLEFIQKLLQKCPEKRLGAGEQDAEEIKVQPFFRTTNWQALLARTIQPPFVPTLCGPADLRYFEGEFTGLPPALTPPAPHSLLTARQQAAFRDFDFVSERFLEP
Chain of Serine/threonine-protein kinase Nek7 (Q8TDX7 whole entry): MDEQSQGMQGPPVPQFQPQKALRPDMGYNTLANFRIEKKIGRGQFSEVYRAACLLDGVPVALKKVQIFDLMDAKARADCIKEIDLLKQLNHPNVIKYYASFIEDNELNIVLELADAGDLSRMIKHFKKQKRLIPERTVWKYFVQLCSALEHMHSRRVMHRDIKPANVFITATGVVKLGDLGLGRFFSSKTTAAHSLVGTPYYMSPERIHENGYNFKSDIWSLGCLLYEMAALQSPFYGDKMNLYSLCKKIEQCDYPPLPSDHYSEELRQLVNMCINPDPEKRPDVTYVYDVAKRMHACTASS
Chain of Serine/threonine-protein kinase PAK 6 (Q9NQU5 whole entry): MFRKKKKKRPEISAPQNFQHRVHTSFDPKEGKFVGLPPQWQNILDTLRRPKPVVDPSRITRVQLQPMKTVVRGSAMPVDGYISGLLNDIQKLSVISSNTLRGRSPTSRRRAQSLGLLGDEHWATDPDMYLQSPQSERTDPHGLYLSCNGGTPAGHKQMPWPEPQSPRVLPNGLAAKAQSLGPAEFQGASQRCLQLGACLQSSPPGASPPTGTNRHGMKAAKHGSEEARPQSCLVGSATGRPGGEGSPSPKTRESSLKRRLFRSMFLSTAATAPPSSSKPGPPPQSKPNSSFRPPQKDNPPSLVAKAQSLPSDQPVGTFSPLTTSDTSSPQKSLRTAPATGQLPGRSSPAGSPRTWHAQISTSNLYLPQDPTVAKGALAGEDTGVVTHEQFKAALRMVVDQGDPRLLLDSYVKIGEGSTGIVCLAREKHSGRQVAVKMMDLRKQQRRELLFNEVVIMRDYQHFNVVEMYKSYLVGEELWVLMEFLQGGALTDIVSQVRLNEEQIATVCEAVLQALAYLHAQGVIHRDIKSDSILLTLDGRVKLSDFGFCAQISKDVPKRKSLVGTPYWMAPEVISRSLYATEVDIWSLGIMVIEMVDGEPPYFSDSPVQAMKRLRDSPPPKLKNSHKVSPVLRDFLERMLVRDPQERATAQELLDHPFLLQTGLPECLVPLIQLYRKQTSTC

For the molecule `C=CC(=O)N1CCC[C@H](n2c(=O)n(-c3ccc(Oc4ccccc4)cc3)c3c(N)ncnc32)C1`, the Kd in test [1], in test [2], in test [3], in test [4], in test [5] and in test [6] was > 30 µM (inactive) in each case.

Regarding `Nc1ncnc2c1c(-c1cccc(OCc3ccccc3)c1)cn2[C@H]1C[C@@H](CN2CCC2)C1` [AEW-541], the Kd is > 30 µM (inactive) in test [1]; > 30 µM (inactive) in test [2]; 0.023 µM in test [3]; > 30 µM (inactive) in test [7]; > 30 µM (inactive) in test [4]; > 30 µM (inactive) in test [6].

Turning to `Cc1nc(NC(=O)N2CCC[C@H]2C(N)=O)sc1-c1ccnc(C(C)(C)C(F)(F)F)c1` [ALPELISIB], the Kd in test [2] and in test [5] was > 30 µM (inactive) in each case.

Take `Cc1csc(-c2nnc(Nc3ccc(Oc4ncccc4-c4ccnc(N)n4)cc3)c3ccccc23)c1` [AMG-900]: the Kd in test [2], in test [8], in test [5] and in test [6] was > 30 µM (inactive) in each case.

As to `Cc1cc(C(=O)NOCCO)c(Nc2ccc(I)cc2F)n(C)c1=O` [AZD-8330], the Kd in test [2], in test [8], in test [3] and in test [7] was > 30 µM (inactive) in each case.

Consider `Cn1cnc2c(F)c(Nc3ccc(Br)cc3F)c(C(=O)NOCCO)cc21` [BINIMETINIB], for which the Kd in test [2], in test [3], in test [4], in test [5] and in test [6] was > 30 µM (inactive) in each case.

On to `COc1cc2ncnc(Oc3cccc(NC(=O)Nc4cc(C(C)(C)C(F)(F)F)on4)c3)c2cc1OC` [CEP-32496], for which the Kd in test [2], in test [8], in test [3], in test [5] and in test [6] was > 30 µM (inactive) each time.

Regarding `COc1c(OCCCN2CCOCC2)ccc2c1N=C(NC(=O)c1cnc(N)nc1)N1CCN=C21` [COPANLISIB], the Kd in test [1], in test [2], in test [3], in test [4] and in test [5] was > 30 µM (inactive) throughout.

On to `CC(C)(C)c1nc(-c2cccc(NS(=O)(=O)c3c(F)cccc3F)c2F)c(-c2ccnc(N)n2)s1` [DABRAFENIB], for which the Kd in test [1], in test [2], in test [8], in test [3], in test [5] and in test [6] was > 30 µM (inactive) in each case.

As for `O=C(Nc1nc2cccc(-c3ccc(CN4CCS(=O)(=O)CC4)cc3)n2n1)C1CC1` [FILGOTINIB], the Kd in test [1], in test [2], in test [7], in test [5] and in test [6] was > 30 µM (inactive) in each case.

Consider `NC(=O)c1c(OCc2c(F)cc(Br)cc2F)nsc1NC(=O)NCCCCN1CCCC1` [OSI-632], for which the Kd in test [1], in test [2], in test [8], in test [3], in test [4] and in test [5] was > 30 µM (inactive) throughout.

In the case of `Cc1nc(Nc2n[nH]c3c2CN(C(=O)N[C@H](CN(C)C)c2ccccc2)C3(C)C)c2sccc2n1` [PF-03758309], the Kd was 0.003 µM (active) in test [1]; > 30 µM (inactive) in test [2]; > 30 µM (inactive) in test [3]; > 30 µM (inactive) in test [4]; > 30 µM (inactive) in test [5].

On to `CC(=O)NCC(=O)N1[C@@H]2CC[C@H]1c1ccc(Nc3ncc(C(F)(F)F)c(NC4CCC4)n3)cc12` [PF-03814735], for which the Kd in test [2], in test [8] and in test [4] was > 30 µM (inactive) throughout.

With `Cc1cnc(NC(=O)Nc2cc(Br)c(C)cc2OC[C@@H]2CNCCO2)cn1` [RABUSERTIB], the Kd in test [1], in test [2], in test [3], in test [7], in test [4] and in test [5] was > 30 µM (inactive) each time. In addition, in test [6], the Kd is > 30 µM (inactive).

In the case of `CCS(=O)(=O)c1cccc(-c2cc(C(=O)NC3CCN(C)CC3)c(C)c3[nH]c4ncc(C)cc4c23)c1` [TAK-901], the Kd in test [1], in test [2], in test [8], in test [4] and in test [6] was > 30 µM (inactive) in each case.

As for `COc1cc2c(Nc3ccc(Cl)c(Cl)c3F)ncnc2cc1OC[C@@H]1C[C@@H]2CN(C)C[C@@H]2C1` [TESEVATINIB], the Kd in test [1], in test [2], in test [8], in test [3], in test [7] and in test [4] was > 30 µM (inactive) throughout.

Turning to `O=C(Cc1ccc(-c2ccc(OCCN3CCOCC3)cc2)cn1)NCc1ccccc1` [TIRBANIBULIN], the Kd in test [2], in test [7], in test [4], in test [5] and in test [6] was > 30 µM (inactive) each time.

With `C[C@@H](NC(=O)c1ncnc(N)c1Cl)c1ncc(C(=O)Nc2cc(C(F)(F)F)c(Cl)cn2)s1` [TOVORAFENIB], the Kd in test [1] was > 30 µM (inactive); in test [2], 0.146 µM; in test [8], > 30 µM (inactive); in test [3], > 30 µM (inactive); in test [6], > 30 µM (inactive).

`C[C@@H](N)c1ccc(C(=O)Nc2ccnc3[nH]ccc23)cc1` [Y-39983]: the Kd in test [1], in test [2], in test [3] and in test [4] was > 30 µM (inactive) each time.
